{"source": "patent US10568854B2", "about": "“Compositions and methods for treating kabuki syndrome and related disorders” (THE JOHNS HOPKINS UNIVERSITY, priority 2014, dated 2020)", "key": {"[1]": {"tested_on": "H3K4 trimethylation activity in Kmt2d^+/βGeo and Kmt2d^+/+ MEFs", "assay": "H3K4me3 indicator in murine embryonic fibroblasts (MEFs)", "assay_type": "cell-based, mouse", "from_the_text": "An H3K4 trimethylation reporter was also created. This reporter is based on the H3 tail on one end and the TBP associated factor III (TAFIII) homeodomain on the other end; the TAFIII homeodomain only identifies and binds to trimethylated K4 on H3. When the H3K4 site gets trimethylated, the TAFIII homeodomain can bind to the modified H3 tail and bring the two parts of the separated GFP in close proximity. The activity of the epigenetic modification system can be quantified through fluorescence.\nEpigenetic reporter alleles: Epigenetic reporter alleles were synthesized (OriGene, Rockville, Md.) using published sequences for component elements (Baird et al. (1999) Proc. Nail. Acad. Sci. 96:11241-6; Souslova et al. (2007) BMC Biotechnol. 7:37). Single nucleotide mutations were created using the QuickChange Lightening kit (Agilent Technologies Inc, Santa Clara, Calif.). For H4ac indicator, K5R, K8R, K12R, K16R and K20R (MUT indicator) were introduced. For H3K4me3 indicator, K4Q and D890A/W891A and M882A (three separate constructs) were introduced. For transient transfections, mouse embryonic fibroblasts (see below) were transfected with Fugene HD (Promega, Madison, Wis.), 48 hours prior to FACS. […] For drug stimulation, drug was added to the media 24 hours prior to FACS. For stable transfections in T293 (American Type Culture Collection) cells, 10 μg/ml of Blastocidin (Life Technologies, Carlsbad, Calif.) was added to the media for several weeks. For stable transfection in MEFs, the reporter was transferred to a ViraPower Lentiviral Expression System (Life Technologies, Carlsbad, Calif.). After selection with Blastocidin, the drug of interest was added 24 hours prior to FACS. SAHA, AR-42 and MS275 were purchased from Selleck (Selleck Chemicals, Houston, Tex.). […] FACS data were analyzed using FlowJo (Tree Star Inc, Ashland, Oreg.). A plasmid expressing HDAC3 was acquired from Addgene (Cambridge, Mass., plasmid 13819) and transfected into a stable cell line carrying the H4 acetyl reporter allele."}, "[2]": {"tested_on": "H3K4me3 in the GCL", "assay": "Immunofluorescence of H3K4me3 in dentate gyrus GCL (AR-42 treated mice)", "assay_type": "in vivo, mouse", "from_the_text": "Animals: Kmt2d^+/βGeo mice, also named Mll2Gt^(RRt024)Byg, were acquired from Bay Genomics (University of California). All experimental mice were on a mixed C57BL/6J and 129/SvEv background. Expected Mendelian ratios were observed when heterozygous animals were bred to wild-type. In heterozygous crosses, however, there was uniform embryonic lethality of homozygotes by ED12, the earliest developmental stage assayed. For treatment with AR-42 mice were orally gavaged daily with drug (Selleck Chemicals, Houston, Tex.) solubilized in vehicle (0.5% methylcellulose, 0.1% Tween-80, water) or with vehicle alone. Drug delivery information was kindly provided by Drs. […] For quantification of DCX positive cells, doses of 0, 5, 10 and 25 mg/kg/day were used. […] Maxillary protrusion was evaluated by ten investigators blinded to genotype and they were asked to rate maxillary protrusion on radiographs as either large (2) or small (1). […]\nConfocal microscopy: Z-stack images of slides were taken at either 10× using Zeiss Axiovert 200 with 510-Meta confocal module (Carl Zeiss, Jena, GER) or 25× using Zeiss AxioExaminer with 710NLO-Meta multiphoton (Carl Zeiss, Jena, GER). From 10× pictures, the GCL was highlighted and fluorescent intensities for both DAPI and H3K4me3 were measured at the midpoint of the entire z-stack (Zen software, Carl Zeiss, Jena, GER) with the value for Kmt2d^+/+ animals set equal to one. […]"}, "[3]": {"tested_on": "Klf10 expression", "assay": "Real-time PCR of Kmt2d target gene Klf10 in spleen cells", "assay_type": "in vivo, mouse", "settings": "Kmt2d^+/βGeo mice", "description": "Real time PCR: Real-time PCR was performed using Kmt2d-specific probes for exons 20 and 52 (Mm_02600438 and Mm_01717664, respectively) from TaqMan® Gene Expression Assays (Life Technologies, Carlsbad, Calif.). For a comparison of transfection efficiencies for indicator constructs in transient transfection studies, real-time PCR was performed using SYBR Green Real-Time PCR Master Mix (Life Technologies, Carlsbad, Calif.) and primers IND-F-([…]; SEQ ID NO: 5) and IND-R-([…]; SEQ ID NO: 6) that are specific for the H3K4 methylation indicator. For expression analysis for KMT2D target gene KLF10, real-time PCR was performed using Klf10-specific expression assay (Mm00449812_m1) from TaqMan® Gene Expression Assays (Life Technologies, Carlsbad, Calif.)."}, "[4]": {"tested_on": "H3K4 trimethylation and histone acetylation", "settings": "cited from earlier work"}}, "note": "Entries after “also recorded” stand apart in the source; their conditions may differ."}
{"smiles": "CC(C)[C@H](C(=O)Nc1ccc(C(=O)NO)cc1)c1ccccc1", "note": "[AR-42, (S)—N-hydroxy-4-(3-methyl-2-phenylbutanamido)benzamide]", "values": [{"measurement": "dose at which Kmt2d^+/βGeo MEFs achieve untreated wild-type levels of H3K4me3 indicator activity", "setting": "[1]; Kmt2d^+/βGeo MEFs", "result": 5, "unit": "µM"}, {"measurement": "H3K4 trimethylation activity", "setting": "[1]; Kmt2d^+/βGeo cells treated with HDAC inhibitor", "result": "enhanced"}, {"measurement": "H3K4me3 indicator activity in MEFs", "setting": "[1]; both genotypes (Kmt2d^+/βGeo, Kmt2d^+/+)", "result": "dose-dependent response"}, {"measurement": "H3K4me3 in the GCL", "setting": "[2]; 25 mg/kg/day, oral gavage, two weeks", "result": "increased H3K4 trimethylation; also recorded: increased H3K4me3"}, {"measurement": "H3K4me3 in the GCL", "setting": "[2]; 5 and 10 mg/kg/day, both genotypes", "result": "dose-dependent increase in H3K4me3"}, {"measurement": "Klf10 expression in spleen cells", "setting": "[3]", "result": "normalization of expression of Klf10; also recorded: normalized"}, {"measurement": "relative effect on H3K4me3", "setting": "[4]; AR-42 versus MS275, Huang et al. (2011)", "result": "strongest effect on H3K4me3"}, {"measurement": "effect on H3K4 trimethylation and histone acetylation", "setting": "[4]; Huang et al. (2011)", "result": "increase H3K4 trimethylation and histone acetylation"}]}
